# Literature values, collected in patent US10227355B2, “Quinoline derivatives and preparation thereof” (COUNCIL OF SCIENTIFIC AND INDUSTRIAL RESEARCH, priority 2015, dated 2019).
# Tested on: Plasmodium cynomolgi B
# Details: intramuscularly, 7 daily doses of 15 mg/kg; observation period of 120 d; rhesus monkeys
row,SMILES,anti-relapse (curative) activity
1,"CCCCCCCCCCOc1cc2c(OC(C)=O)c(C(=O)OC)cnc2cc1OC(C)C [WR 194905, 4-acetoxy-6-decyloxy-7-isopropoxy-3-methoxycarbonylquinoline]",curative
2,"CCCCc1cc2c(O)c(C(=O)OC)cnc2cc1OCCOc1ccccc1 [WR 197236, 6-butyl-4-hydroxy-3-methoxycarbonyl-7-β-phenoxyethoxyquinoline]",curative
